Results from paper PMC3858552, “The discovery of potent ribosomal S6 kinase inhibitors by high-throughput screening and structure-guided drug design” (Oncotarget, 2013).
Like-named read-outs stand apart in the source and are kept apart here.

Experiments:
S6K1 [1] = target: T1, S6K1 (Homo sapiens, UniProt P23443, T412E); assay: S6K1 DELFIA phosphorylation assay (IC50 of screening hits); assay type: biochemical; conditions: for IC50: repurchased samples; for LE (ligand efficiency): calculated using the mean IC50 values
T1 construct: The His-tagged kinase domain of S6K1 (residues 1-421, catalogue number 14-486) used in the HTS; His; purchased Millipore (Upstate/Millipore) 14-486
Experimental: For primary screening hits, IC50 values were determined using a DELFIA® assay that monitors phosphorylation of a S6 peptide using a specific phospho-antibody. The enzyme reaction was carried out in 96 well polypropylene plates (#650261; Greiner Bio-One, Frickenhausen, Germany).
For each compound, a 10mM stock was diluted in water resulting in a 1250 μM solution in 12.5% (v/v) DMSO. Compounds were manually diluted 1 in 3 in 12.5% (v/v) DMSO to give an eight point dilution curve in duplicate. Finally, 5 μL compound solution or 12.5% (v/v) DMSO was transferred to the assay plate resulting in compound assay concentrations of 0.12-250 μM.
Subsequently, 20 μL of reaction reagents were added to the assay plate resulting in final assay concentrations of 1 μM S6 peptide (biotin-[…], synthesised by J. Metcalfe, ICR), 2 nM S6K1 (#14-486; Millipore, Billerica, MA, USA) and 30 μM ATP in assay buffer consisting of 40 mM HEPES pH 7.4, 10 mM MgCl2, 1 mM DTT and 0.02% (v/v) Tween 20. The reaction was incubated for an hour at 37 °C and stopped by the addition of 125 μL buffer comprising 40 mM EDTA, 0.05% (v/v) Tween 20, 0.1% (w/v) BSA in TBS (10x concentrate, Sigma-Aldrich, Gillingham, UK). A 100 μL aliquot of the reaction solution was transferred to a black neutravidin-coated plate (#15117; Perbio/Thermo Scientific, Cramlington, UK) and incubated for an hour on a Titertek shaker (Flow Laboratories, Sutton, UK) at room temperature. The plates were washed four times with WellWash4 wash buffer (Thermo Life Sciences Ltd, Basingstoke, UK) containing 25 mM Tris pH 8, 150 mM NaCl and 0.1% (v/v) Tween 20 and incubated for an hour with 100 μL of an antibody mix consisting of 0.05 nM of an anti-phospho S6 antibody (#2211; Cell Signalling Technology) and 0.18 μg/mL of an europium-labelled anti-rabbit IgG, (#AD0105; PerkinElmer Life Sciences, Waltham, MA, USA) diluted in DELFIA assay buffer (#4002-0010; PerkinElmer Life Sciences). The plates were washed a further four times with WellWash4 wash buffer (Thermo Life Sciences) before the addition of 100 μL Enhancement Solution (#4001-0010; PerkinElmer Life Sciences). The plate was read on an EnVision® 2103 Multilabel Reader (PerkinElmer Life Sciences) using a time-resolved measurement mode reading fluorescence at 615 nm. IC50 values were calculated from a four-parameter logistics fit of percentage inhibition versus concentration using GraphPad Prism 5 (GraphPad Software, Inc., CA, USA).

S6K1 [2] = target: S6K1 (Homo sapiens, UniProt P23443); assay: S6K1 mobility shift (microfluidic) assay; assay type: biochemical; conditions: for activity against S6K1 (in words): benzimidazole / azabenzimidazole oxadiazoles; for LE (ligand efficiency): calculated using the mean IC50 values
Experimental: For all compounds from the benzimidazole oxadiazole/azabenzimidazole oxadiazole series, the IC50 values were determined using a microfluidic assay that monitors the separation of a phosphorylated product from its substrate. […] For each compound, a 10 mM stock concentration in 100% DMSO was used.
IC50 values were calculated from a four-parameter logistics fit of percentage inhibition versus concentration using GraphPad Prism 5 (GraphPad Software, Inc., CA, USA).

AKT-Thr308 = assay: Electrochemiluminescent ELISA, AKT-Thr308 phosphorylation in intact cells; assay type: cell-based; conditions: Homo sapiens, electrochemoluminescent ELISA
Experimental: (§1) The human bladder carcinoma cell line HCV29 was obtained from Dr Richard Lamb (University of Liverpool, UK). This cell line has elevated mTORC1 and S6K activity through loss of TSC1 [46] as a result of a missense mutation and TSC2 loss that was confirmed by immunoblotting (data not shown). Cells were cultured in RPMI (Invitrogen, Life Technologies Ltd, Paisley, UK) containing 2 mmol/L glutamine (Invitrogen), and supplemented with non-essential amino acids (Invitrogen) 10% fetal bovine serum (PAA Laboratories Ltd, Yeovil, UK) in 5% CO2 in air at 37 °C. GI50 values (concentrations) causing 50% inhibition of proliferation for tumour cells were determined using a sulforhodamine B assay. Electrochemiluminescent immunoassays (Meso Scale Discovery, Rockville, MD, USA) measuring the inhibition of phosphorylation of RPS6-ser235/236, AKT-Thr308, AKT-Ser473, GSK3b-Ser9 and S6K-Ser421/424 were carried out as described in Raynaud et al..

GSK3b-Ser9 = assay: Electrochemiluminescent ELISA, GSK3b-Ser9 phosphorylation in intact cells; assay type: cell-based; conditions: Homo sapiens, electrochemoluminescent ELISA
Experimental: as §1

S6K2 = S6K2 (Homo sapiens, UniProt Q9UBS0); assay: S6K2 inhibition; assay type: biochemical
[3] = tested on: HCV29 human bladder carcinoma cells; assay: Sulforhodamine B proliferation assay (GI50); assay type: cell-based; conditions: HCV-29, 96 hours continuous exposure, read-out: GI50 (50% tumour growth inhibition)
Experimental: as §1

RPS6-ser235/236 = assay: Electrochemiluminescent ELISA, RPS6 Ser235/236 phosphorylation in intact cells; assay type: cell-based; conditions: Homo sapiens, HCV-29; HCV29 intact cells, 2 hours exposure, n=3; read-out: EC50 for 50% inhibition of RPS6 Ser235/236 phosphorylation
Experimental: as §1

AKT-Ser473 = assay: Electrochemiluminescent ELISA, AKT-Ser473 phosphorylation in intact cells; assay type: cell-based; conditions: Homo sapiens, electrochemoluminescent ELISA
Experimental: as §1

S6K-Ser421/424 = assay: Electrochemiluminescent ELISA, S6K-Ser421/424 phosphorylation in intact cells; assay type: cell-based; conditions: Homo sapiens, electrochemoluminescent ELISA
Experimental: as §1

[4] = Table 3, confirmation DELFIA assay, mean ± standard error, duplicate
[5] = Table 4, mobility shift assay, mean ± SD triplicate, or duplicate/single measurement as footnoted, read-out: S6K1 IC50
[6] = Table 5, mobility shift assay, mean ± SD triplicate, or single measurement as footnoted, read-out: S6K1 IC50
[7] = Table 6, mobility shift assay, mean ± SD triplicate, or duplicate ± SE / single measurement as footnoted, read-out: S6K1 IC50
[8] = Table 2, confirmation DELFIA assay, mean ± standard error, duplicate

T1 sequence (P23443 1-421 T412E limits assumed): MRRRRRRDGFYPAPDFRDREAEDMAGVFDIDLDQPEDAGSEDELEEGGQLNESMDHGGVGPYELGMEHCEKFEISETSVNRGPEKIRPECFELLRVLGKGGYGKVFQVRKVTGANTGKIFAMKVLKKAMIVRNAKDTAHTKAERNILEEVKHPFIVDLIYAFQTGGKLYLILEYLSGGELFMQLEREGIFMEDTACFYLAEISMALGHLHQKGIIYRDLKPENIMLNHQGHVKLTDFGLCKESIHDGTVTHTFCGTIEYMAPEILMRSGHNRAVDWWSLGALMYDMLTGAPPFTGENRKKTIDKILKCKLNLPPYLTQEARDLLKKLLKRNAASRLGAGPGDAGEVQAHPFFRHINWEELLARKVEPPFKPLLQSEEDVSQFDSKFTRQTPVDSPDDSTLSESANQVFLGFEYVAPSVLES
S6K1 (Homo sapiens, UniProt P23443), sequence (P23443 1-421): as the sequence (P23443 1-421 T412E limits assumed) above, with E412T counted along it
S6K2, sequence (Q9UBS0 whole entry): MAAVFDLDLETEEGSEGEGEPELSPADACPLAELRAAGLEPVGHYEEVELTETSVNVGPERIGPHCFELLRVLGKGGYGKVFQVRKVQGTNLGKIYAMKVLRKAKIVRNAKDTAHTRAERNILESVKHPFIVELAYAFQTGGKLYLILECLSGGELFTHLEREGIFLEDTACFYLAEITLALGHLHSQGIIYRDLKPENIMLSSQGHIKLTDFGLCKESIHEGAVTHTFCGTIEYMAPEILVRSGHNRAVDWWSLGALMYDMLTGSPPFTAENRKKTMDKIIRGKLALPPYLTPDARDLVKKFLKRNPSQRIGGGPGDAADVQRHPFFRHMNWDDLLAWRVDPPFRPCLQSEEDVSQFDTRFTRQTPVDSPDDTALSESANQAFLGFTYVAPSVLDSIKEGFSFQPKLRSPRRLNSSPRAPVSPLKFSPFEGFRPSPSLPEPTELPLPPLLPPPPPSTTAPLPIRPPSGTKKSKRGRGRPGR

C=CCn1c(-c2nonc2N)nc2ccccc21 [Compound 11] was tested, and the IC50 (S6K1 [1]; HTS hits) was 7000 nM, the “LE (ligand efficiency)” value (S6K1 [1]; Table 3) was 0.40 and the IC50 (S6K1 [1]; [4]) was 6980 ± 2070 nM.

In the case of Nc1nonc1-c1nc2ccccc2n1Cc1ccccc1 [Compound 15d, 4-(1-Benzyl-1H-benzoimidazol-2-yl)-1,2,5-oxadiazole-3-ylamine], the IC50 (S6K1 [2]; [5]) is reported as over 100000 nM and the “activity against S6K1 (in words)” value (S6K1 [2]) is reported as “complete loss of biochemical activity”.

With CCn1c(-c2nonc2N)nc2cc(-c3ccccc3)ccc21 [Compound 20b, 3-Amino-4-(1-ethyl-5-phenyl-1H-benzimidazol-2-yl)-1,2,5-oxadiazole] the “LE (ligand efficiency)” value (S6K1 [2]; Table 5) was 0.35 and the IC50 (S6K1 [2]; [6]) was 1640 ± 530 nM.

For CCn1c(-c2nonc2N)nc2cnc(Oc3cccc(S(C)(=O)=O)c3)cc21 [Compound 21b, 4-[1-Ethyl-6-(3-methanesulfonyl-phenoxy)-1H-imidazo[4,5-c]pyridin-2-yl]-1,2,5-oxadiazole-3-ylamine], the “LE (ligand efficiency)” value (S6K1 [2]; Table 6) was 0.34 and the IC50 (S6K1 [2]; [7]) was 103 ± 23 nM.

In the case of CCn1c(-c2nonc2N)nc2ccccc21 [Compound 15b, 4-(1-Ethyl-1H-benzoimidazol-2-yl)-1,2,5-oxadiazole-3-ylamine], the “LE (ligand efficiency)” value (S6K1 [2]; Table 4) is reported as 0.59 and the IC50 (S6K1 [2]; [5]) is reported as 59.8 ± 32.4 nM.

With CCn1c(-c2nonc2N)nc2cccc(-c3cccnc3)c21 [Compound 20g, 3-Amino-4-(7-(3-pyridinyl)-1-ethyl-1H-benzimidazol-2-yl)-1,2,5-oxadiazole] the “LE (ligand efficiency)” value (S6K1 [2]; Table 5) was 0.39 and the IC50 (S6K1 [2]; [6]) was 352 ± 173 nM.

For Nc1nonc1-c1nc2ccccc2n1CC1CC1 [Compound 15e, 4-(1-Cyclopropylmethyl-1H-benzoimidazol-2-yl)-1,2,5-oxadiazole-3-ylamine], the “LE (ligand efficiency)” value (S6K1 [2]; Table 4) was 0.56 and the IC50 (S6K1 [2]; [5]) was 19.8 nM.

CCn1c(-c2nonc2N)nc2cc(Br)ccc21 [Compound 20a, 3-Amino-4-(5-bromo-1-ethyl-1H-benzimidazol-2-yl)-1,2,5-oxadiazole] was tested, and the “LE (ligand efficiency)” value (S6K1 [2]; Table 5) was 0.55 and the IC50 (S6K1 [2]; [6]) was 66.4 ± 5.6 nM.

O=c1c2ccccc2nc(-c2cccnc2)n1-c1ccc(Br)cn1 [Compound 7] was tested, and the “LE (ligand efficiency)” value (S6K1 [1]; Table 2) was 0.38 and the IC50 (S6K1 [1]; [8]) was 260 ± 150 nM.

CC(=O)Nc1nonc1-c1nc2ccccc2n1C1CC1 [Compound 16, N-[4-(1-Cyclopropyl-1H-benzoimidazol->2-yl)-1,2,5-oxadiazole-3-yl]-acetamide] gave an IC50 (S6K1 [2]; acetylated aminooxadiazole, read-out: S6K IC50) of over 100000 nM.

In the case of CCn1c(-c2nonc2N)nc2cccc(Br)c21 [Compound 20f, 3-Amino-4-(7-bromo-1-ethyl-1H-benzimidazol-2-yl)-1,2,5-oxadiazole], the “LE (ligand efficiency)” value (S6K1 [2]; Table 5) is reported as 0.50 and the IC50 (S6K1 [2]; [6]) is reported as 303 ± 21 nM.

For CCn1c(-c2nonc2N)nc2cc(C3CC3)ccc21 [Compound 20c, 3-Amino-4-(5-cyclopropyl-1-ethyl-1H-benzimidazol-2-yl)-1,2,5-oxadiazole], the “LE (ligand efficiency)” value (S6K1 [2]; Table 5) was 0.45 and the IC50 (S6K1 [2]; [6]) was 334 ± 25.1 nM.

For CCn1c(-c2nonc2N)nc2cnc(-c3ccccc3)cc21 [Compound 21c, 4-(1-Ethyl-6-phenyl-1H-imidazo[4,5-c]pyridin-2-yl)-1,2,5-oxadiazole-3-ylamine], the IC50 (S6K1 [2]; [7]) was over 100000 nM and the “activity against S6K1 (in words)” value (S6K1 [2]) was “abolished all affinity for S6K1”.

Cn1c(-c2nonc2N)nc2ccccc21 [Compound 15a, 4-(1-Methyl-1H-benzoimidazol-2-yl)-1,2,5-oxadiazole-3-ylamine] was tested, and the “LE (ligand efficiency)” value (S6K1 [2]; Table 4) was 0.58, the IC50 (S6K1 [2]; [5]) was 194 nM and the “activity against S6K1 (in words)” value (S6K1 [2]) was “about six-fold less active”.

In the case of CCn1c(-c2nonc2N)nc2cnc(N3CCOCC3)cc21 [Compound 21d, 4-(1-Ethyl-6-morpholin-4-yl-1H-imidazo[4,5-c]pyridin-2-yl)-1,2,5-oxadiazole-3-ylamine], the “LE (ligand efficiency)” value (S6K1 [2]; Table 6) is reported as 0.42 and the IC50 (S6K1 [2]; [7]) is reported as 110 nM.

CCn1c(-c2nonc2N)nc2cnc(C)cc21 [Compound 21e, 4-(1-Ethyl-6-methyl-1H-imidazo[4,5-c]pyridin-2-yl)-1,2,5-oxadiazole-3-ylamine] was tested, and the IC50 (AKT-Thr308) was over 15 µM, the IC50 (GSK3b-Ser9) was over 15 µM and the IC50 (S6K2) was 300 ± 102 nM. For the same compound, the GI50 [3] was 3.5 µM, the “ligand efficiency” value (S6K1 [2]) was 0.6 and the “LE (ligand efficiency)” value (S6K1 [2]; Table 6) was 0.60. The IC50 (S6K1 [2]; [7]) was 17.4 ± 6 nM, the EC50 (RPS6-ser235/236) was 9.1 ± 1.5 µM and the IC50 (AKT-Ser473) was over 15 µM. The IC50 (S6K-Ser421/424) was over 15 µM.

O=c1c2ccccc2nc(-c2ccccn2)n1-c1ccccc1 [Compound 9] was tested, and the “LE (ligand efficiency)” value (S6K1 [1]; Table 2) was 0.33 and the IC50 (S6K1 [1]; [8]) was 2970 ± 1530 nM.

For CCn1c(-c2nonc2N)nc2cnc(Br)cc21 [Compound 21a, 3-Amino-4-(6-bromo-1-ethyl-1H-imidazo[4,5-c]pyridin-2-yl)-1,2,5-oxadiazole], the “LE (ligand efficiency)” value (S6K1 [2]; Table 6) was 0.59 and the IC50 (S6K1 [2]; [7]) was 19.7 ± 2.6 nM.

CCn1c(-c2nonc2N)nc2cc(NC)ccc21 [Compound 20e, 3-Amino-4-(1-ethyl-5-methylamino-1H-benzimidazol-2-yl)-1,2,5-oxadiazole] was tested, and the “LE (ligand efficiency)” value (S6K1 [2]; Table 5) was 0.50 and the IC50 (S6K1 [2]; [6]) was 148 nM.

Nc1nonc1-c1nc2ccccc2n1C1CC1 [Compound 15c, 4-(1-Cyclopropyl-1H-benzoimidazol-2-yl)-1,2,5-oxadiazole-3-ylamine] was tested, and the “LE (ligand efficiency)” value (S6K1 [2]; Table 4) was 0.57 and the IC50 (S6K1 [2]; [5]) was 36.6 ± 7 nM.

In the case of Cc1ccc(-n2c(-c3ccccn3)nc3ccccc3c2=O)cc1 [Compound 8], the “LE (ligand efficiency)” value (S6K1 [1]; Table 2) is reported as 0.33 and the IC50 (S6K1 [1]; [8]) is reported as 1550 ± 920 nM.

In the case of CC(C)n1c(-c2nonc2N)nc2ccccc21 [Compound 10], the “LE (ligand efficiency)” value (S6K1 [1]; Table 3) is reported as 0.50 and the IC50 (S6K1 [1]; [4]) is reported as 340 ± 140 nM.

For CCn1c(-c2nonc2N)nc2cc(OC)ccc21 [Compound 20d, 3-Amino-4-(1-ethyl-5-methoxy-1H-benzimidazol-2-yl)-1,2,5-oxadiazole], the “LE (ligand efficiency)” value (S6K1 [2]; Table 5) was 0.52 and the IC50 (S6K1 [2]; [6]) was 63.4 nM.
